Our source for the Ki values is patent US7732618B2, “Benzimidazole acetic acids exhibiting CRTH2 receptor antagonism and uses thereof” (Wyeth, priority 2004, dated 2010).

The structures appear in SMILES notation.

The target in this test is T1, human CRTH2 (Homo sapiens, UniProt Q9Y5Y4).
T1 sequence (Q9Y5Y4 1-395): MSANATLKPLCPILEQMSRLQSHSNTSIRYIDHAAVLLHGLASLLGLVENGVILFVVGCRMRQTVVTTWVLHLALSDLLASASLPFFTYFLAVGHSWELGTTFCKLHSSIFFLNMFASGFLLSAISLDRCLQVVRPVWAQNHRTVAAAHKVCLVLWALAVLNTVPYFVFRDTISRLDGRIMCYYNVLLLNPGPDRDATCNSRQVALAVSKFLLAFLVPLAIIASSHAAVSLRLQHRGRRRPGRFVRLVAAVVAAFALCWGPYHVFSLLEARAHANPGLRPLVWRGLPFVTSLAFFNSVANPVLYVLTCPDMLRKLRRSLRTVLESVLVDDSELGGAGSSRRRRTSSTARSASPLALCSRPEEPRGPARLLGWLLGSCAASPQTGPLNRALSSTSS
Nature of the test: CRTH-2 binding assay (scintillation proximity assay, inhibition of 3H-PGD2 binding). Further details: expressed in transfected cells; host or cells: 293EBNA-hCRTH2 cells (membrane preparation). Particulars: membranes from 293EBNA-hCRTH2 cells, 3H-PGD2 3.6 nM; Ki calculated from IC50. The procedure: A CRTH2 binding assay was developed to measure the ability of compounds to inhibit the binding of PGD2 to human CRTH2 using a scintillation proximity assay.
Membranes containing hCRTH2 receptors were prepared from 293EBNA-hCRTH2 cells (a 293EBNA cell line stably expressing human CRTH2). The cells were grown to confluency, harvested and washed with PBS. The cells were resuspended in 10 mM Hepes pH 7.4, 1 mM EDTA and protease inhibitors and incubated for 30 min on ice. The cells were homogenized and centrifuged for 10 min at 1000×g. The supernate was centrifuged for 30 min at 100,000×g and the membrane pellet was then resuspended in 10 mM Hepes pH 7.4 and 1 mM EDTA. The protein concentration of the membrane preparation was determined by Bradford assay (Bio-Rad).
The ability of compounds to inhibit the interaction of PGD2 to human CRTH2 was determined at seven compound concentrations. Compounds were serially diluted in DMSO then diluted into CRTH2 buffer (10 mM Hepes pH 7.4, 1 mM EDTA, 10 mM MnCl2) to six times the final desired concentration. 20 μL of the diluted compounds were transferred into non-surface binding 96-well plates (Corning). Each concentration was done in triplicate. In addition to test compounds, each plate contained 12 control wells. Six of these wells contained 20 μL of CRTH2 buffer. These wells were used to measure total binding. Six wells contained 20 μL of CRTH2 buffer plus 1.5 mM indomethacin. These wells were used to measure non-specific binding. Next, 293EBNA-hCRTH2 membranes were resuspended in CRTH2 buffer with glycerol (10 mM Hepes pH 7.4, 1 mM EDTA, 10 mM MnCl2, 25% glycerol) so that the final concentration was approximately 20 μg/100 μL. Polylysine-coated yttrium silicate SPA beads (Amersham) were added to the membrane mix to a concentration of 0.4 mg/100 μL and finally ^3H-PGD2 was added to the membrane/SPA bead mix to 3.6 nM. 100 μL of the membrane/SPA bead/^3H-PGD2 mix was added to each well of the non-surface binding plates containing the diluted compound or controls. The plates were incubated for 2 hours at room temperature with shaking and then the plates were counted on a Microbeta scintillation counter (Perkin Elmer) for 1 min per well.
IC50 values were determined from the experimental results by nonlinear regression using Prism 4.0 software. The IC50 values were then used in conjunction with the Kd for hCRTH2 and the ^3H-PGD2 concentration used in the experiment to calculate the Ki for each compound.
Take `CCCc1nc2cc(N(Cc3cccc(Cl)c3)S(=O)(=O)c3ccc(F)cc3)ccc2n1CC(=O)O` [Example 42, {5-[(3 -Chloro-benzyl)-(4-fluoro-benzenesulfonyl)-amino]-2-propyl-benzoimidazol-1-yl}-acetic acid]: the inhibition constant Ki is less than 0.1 µM.

Consider `CCCc1nc2cc(N(Cc3cccc(Cl)c3Cl)S(=O)(=O)c3ccc(F)cc3)ccc2n1CC(=O)O` [Example 44, {5-[(2,3-Dichloro-benzyl)-(4-fluoro-benzenesulfonyl)-amino]-2-propyl-benzoimidazol-1-yl}-acetic acid], for which the inhibition constant (Ki) is less than 0.1 µM.

Consider `CCCc1nc2cc(N(Cc3ccccc3C(F)(F)F)S(=O)(=O)c3ccc(F)cc3)ccc2n1CC(=O)O` [Example 45, {5-[(2-Trifluoromethyl-benzyl)-(4-fluoro-benzenesulfonyl)-amino]-2-propyl-benzoimidazol-1-yl}-acetic acid], for which the Ki is less than 1 µM.

In the case of `CCCc1nc2cc(N(CCCc3ccccc3)S(=O)(=O)c3ccc(F)cc3)ccc2n1CC(=O)O` [Example 48, {5-[(4-Fluoro-benzenesulfonyl)-(3-phenyl-propyl)-amino]-2-propyl-benzoimidazol-1-yl}-acetic acid], the inhibition constant Ki was less than 0.1 µM.

As for `CCCc1nc2cc(N(Cc3cccc(F)c3)S(=O)(=O)c3ccc(F)cc3)ccc2n1CC(=O)O` [Example 50, {5-[(4-Fluoro-benzenesulfonyl)-(3-fluoro-benzyl)-amino]-2-propyl-benzoimidazol-1-yl}-acetic acid], the Ki was less than 1 µM.

Take `CCCc1nc2cc(N(Cc3cccc(C(F)(F)F)c3)S(=O)(=O)c3ccc(F)cc3)ccc2n1CC(=O)O` [Example 51, {5-[(4-Fluoro-benzenesulfonyl)-(3-trifluoromethyl-benzyl)-amino]-2-propyl-benzoimidazol-1-yl}-acetic acid]: the inhibition constant (Ki) is less than 1 µM.

For the compound `CCCc1nc2cc(N(Cc3ccc(C#N)cc3)S(=O)(=O)c3ccc(F)cc3)ccc2n1CC(=O)O` [Example 52, {5-[(4-Cyano-benzyl)-(4-fluoro-benzenesulfonyl)-amino]-2-propyl-benzoimidazol-1-yl}-acetic acid], the inhibition constant Ki was less than 0.1 µM.

As for `CCCc1nc2cc(N(Cc3ccc(OC(F)(F)F)cc3)S(=O)(=O)c3ccc(F)cc3)ccc2n1CC(=O)O` [Example 53, {5-[(4-Trifluoromethoxy-benzyl)-(4-fluoro-benzenesulfonyl)-amino]-2-propyl-benzoimidazol-1-yl}-acetic acid], the inhibition constant (Ki) was less than 0.1 µM.

As for `CCCc1nc2cc(N(Cc3ccccc3C#N)S(=O)(=O)c3ccc(F)cc3)ccc2n1CC(=O)O` [Example 54, {5-[(2-Cyano-benzyl)-(4-fluoro-benzenesulfonyl)-amino]-2-propyl-benzoimidazol-1-yl}-acetic acid], the Ki was less than 1 µM.

On to `CCCc1nc2cc(N(Cc3nc4ccccc4s3)S(=O)(=O)c3ccc(F)cc3)ccc2n1CC(=O)O` [Example 55, {5-[Benzothiazol-2-ylmethyl-(4-fluoro-benzenesulfonyl)-amino]-2-propyl-benzoimidazol-1-yl}-acetic acid], for which the Ki is less than 0.1 µM.

Turning to `C/C=C/CN(c1ccc2c(c1)nc(CCC)n2CC(=O)O)S(=O)(=O)c1ccc(F)cc1` [Example 56, {5-[But-2-enyl-(4-fluoro-benzenesulfonyl)-amino]-2-propyl-benzoimidazol-1-yl}-acetic acid], the inhibitory constant (Ki) was less than 0.1 µM.

In the case of `CCCc1nc2cc(N(Cc3ccccc3)C(C)=O)ccc2n1CC(=O)O` [Example 57, [5-(Acetyl-benzyl-amino)-2-propyl-benzoimidazol-1-yl]-acetic acid], the Ki was less than 10 µM.

Consider `CCCc1nc2cc(N(Cc3ccccc3)C(=O)C(C)C)ccc2n1CC(=O)O` [Example 58, [5-(Benzyl-isobutyryl-amino)-2-propyl-benzoimidazol-1-yl]-acetic acid], for which the inhibition constant Ki was more than 10 µM.

With `CCCc1nc2cc(N(Cc3ccccc3)C(=O)CC(C)C)ccc2n1CC(=O)O` [Example 59, {5-[Benzyl-(3-methyl-butyryl)-amino]-2-propyl-benzoimidazol-1-yl}-acetic acid], the inhibitory constant (Ki) was less than 10 µM.

As to `CCCc1nc2cc(N(Cc3ccccc3)C(=O)C3CCCC3)ccc2n1CC(=O)O` [Example 60, [5-(Benzyl-cyclopentanecarbonyl-amino)-2-propyl-benzoimidazol-1-yl]-acetic acid], the Ki was less than 10 µM.

As for `CCCc1nc2cc(N(Cc3ccccc3)C(=O)C3CCCCC3)ccc2n1CC(=O)O` [Example 61, [5-(Benzyl-cyclohexanecarbonyl-amino)-2-propyl-benzoimidazol-1-yl]-acetic acid], the Ki is less than 10 µM.

`CCCc1nc2cc(N(Cc3ccccc3)C(=O)c3cccc(Cl)c3)ccc2n1CC(=O)O` [Example 62, {5-[Benzyl-(3-chloro-benzoyl)-amino]-2-propyl-benzoimidazol-1-yl}-acetic acid]: the inhibition constant Ki was less than 1 µM.

Turning to `CCCc1nc2cc(N(Cc3ccccc3)C(=O)c3ccc(Cl)cc3)ccc2n1CC(=O)O` [Example 63, {5-[Benzyl-(4-chloro-benzoyl)-amino]-2-propyl-benzoimidazol-1-yl}-acetic acid], the inhibitory constant (Ki) is less than 1 µM.

On to `CCCc1nc2cc(N(Cc3ccccc3)C(=O)c3ccccc3F)ccc2n1CC(=O)O` [Example 64, {5-[Benzyl-(2-fluoro-benzoyl)-amino]-2-propyl-benzoimidazol-1-yl}-acetic acid], for which the Ki is more than 10 µM.

As to `CCCc1nc2cc(N(Cc3ccccc3)C(=O)c3cccc(F)c3)ccc2n1CC(=O)O` [Example 65, {5-[Benzyl-(3-fluoro-benzoyl)-amino]-2-propyl-benzoimidazol-1-yl}-acetic acid], the Ki was less than 10 µM.

`CCCc1nc2cc(N(Cc3ccccc3)C(=O)c3ccc(F)cc3)ccc2n1CC(=O)O` [Example 66, {5-[Benzyl-(4-fluoro-benzoyl)-amino]-2-propyl-benzoimidazol-1-yl}-acetic acid]: the Ki is less than 1 µM.

`CCCc1nc2cc(N(Cc3ccccc3)C(=O)c3ccc(F)c(F)c3)ccc2n1CC(=O)O` [Example 67, {5-[Benzyl-(3,4-difluoro-benzoyl)-amino]-2-propyl-benzoimidazol-1-yl}-acetic acid]: the Ki was less than 1 µM.

Take `CCCc1nc2cc(N(Cc3ccccc3)C(=O)c3c(F)cccc3F)ccc2n1CC(=O)O` [Example 68, {5-[Benzyl-(2,6-difluoro-benzoyl)-amino]-2-propyl-benzoimidazol-1-yl}-acetic acid]: the inhibition constant (Ki) is less than 10 µM.

Consider `CCCc1nc2cc(N(Cc3ccccc3)C(=O)c3sccc3C)ccc2n1CC(=O)O` [Example 69, {5-[Benzyl-(3-methyl-thiophene-2-carbonyl)-amino]-2-propyl-benzoimidazol-1-yl}-acetic acid], for which the inhibition constant Ki was less than 0.1 µM.
